The record followed here is patent US9290485B2, “N-((6-amino-pyridin-3-yl)methyl)-heteroaryl-carboxamides” (NOVARTIS AG, priority 2010, dated 2016).

Chain of human plasma kallikrein (P03952 whole entry, looked up): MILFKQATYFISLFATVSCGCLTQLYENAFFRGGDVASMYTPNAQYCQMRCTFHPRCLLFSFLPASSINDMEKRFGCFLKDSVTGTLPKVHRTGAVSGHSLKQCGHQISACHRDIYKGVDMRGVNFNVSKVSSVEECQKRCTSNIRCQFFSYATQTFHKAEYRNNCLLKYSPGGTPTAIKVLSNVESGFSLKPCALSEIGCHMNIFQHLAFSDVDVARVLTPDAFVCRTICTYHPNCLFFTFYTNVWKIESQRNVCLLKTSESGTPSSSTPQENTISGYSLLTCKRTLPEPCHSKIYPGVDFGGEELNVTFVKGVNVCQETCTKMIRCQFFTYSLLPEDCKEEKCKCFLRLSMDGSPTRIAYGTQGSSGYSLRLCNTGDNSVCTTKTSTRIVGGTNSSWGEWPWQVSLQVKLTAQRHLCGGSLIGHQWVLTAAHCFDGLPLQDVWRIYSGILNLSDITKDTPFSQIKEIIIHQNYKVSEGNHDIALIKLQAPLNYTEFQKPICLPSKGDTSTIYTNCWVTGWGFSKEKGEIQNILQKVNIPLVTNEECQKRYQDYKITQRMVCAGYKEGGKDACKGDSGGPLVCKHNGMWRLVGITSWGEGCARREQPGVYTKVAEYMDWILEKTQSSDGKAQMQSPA
Chain of human plasma kallikrein (P03952 whole entry partner, looked up): as the sequence (P03952 whole entry, looked up) above

The experiment has as its target human plasma kallikrein (Homo sapiens (Human), UniProt P03952). As to conditions: human plasma kallikrein 25 pM, substrate 0.5 uM, 1 hour pre-incubation at room temperature, read at t=60 min.
One may read the IC50 as the concentration that gives 50% inhibition. A lower IC50 goes with greater potency. `Cc1cc(N)nc(C)c1CNC(=O)c1cc(Cc2ccccc2)no1` [Example 3, N-((6-amino-2,4-dimethylpyridin-3-yl)methyl)-3-benzylisoxazole-5-carboxamide] returned an IC50 of 2260 nM.

Regarding `Cc1cc(N)nc(C)c1CNC(=O)c1nnc(Cc2ccccc2)o1` [Example 4, N-((6-amino-2,4-dimethylpyridin-3-yl)methyl)-5-benzyl-1,3,4-oxadiazole-2-carboxamide], 7600 nM corresponded to half-maximal inhibition (IC50).

Take `Cc1cc(N)nc(C)c1CNC(=O)c1nc(Cc2ccccc2)no1` [Example 5, N-((6-amino-2,4-dimethylpyridin-3-yl)methyl)-3-benzyl-1,2,4-oxadiazole-5-carboxamide]: the IC50 came out at 4500 nM. Under `Cc1cc(N)nc(C)c1CNC(=O)c1cn(Cc2ccc(Cn3cccn3)cc2)cn1` [Example 6, 1-(4-((1H-pyrazol-1-yl)methyl)benzyl)-N-((6-amino-2,4-dimethylpyridin-3-yl)methyl)-1H-imidazole-4-carboxamide] stands 0.2 nM. The compound `Cc1cc(N)nc(C)c1CNC(=O)c1ncc(Cc2ccccc2)o1` [Example 7, N-((6-amino-2,4-dimethylpyridin-3-yl)methyl)-5-benzyloxazole-2-carboxamide] displayed an IC50 of 2030 nM. As to `COc1ccc(Cc2nc(C(=O)NCc3c(C)cc(N)nc3C)co2)cc1` [Example 8, N-((6-amino-2,4-dimethylpyridin-3-yl)methyl)-2-(4-methoxybenzyl)oxazole-4-carboxamide], the IC50 was found to be 2640 nM. This IC50 and that of the compound before are within 1.5-fold of each other. Under `Cc1cc(N)nc(C)c1CNC(=O)c1cnn(C(CO)c2ccccc2)c1` (stereo not shown) [Example 11, N-((6-amino-2,4-dimethylpyridin-3-yl)methyl)-1-(2-hydroxy-1-phenylethyl)-1H-pyrazole-4-carboxamide] stands 12200 nM; under `COc1ccc(S(=O)(=O)n2ccc(C(=O)NCc3c(C)cc(N)nc3C)c2)cc1` [Example 12, 1-(4-Methoxy-benzenesulfonyl)-1H-pyrrole-3-carboxylic acid (6-amino-2,4-dimethyl-pyridin-3-ylmethyl)-amide], 1370 nM; under `COc1cc(N)nc(C)c1CNC(=O)c1cnn(Cc2ccccc2)c1` [Example 14, N-((6-amino-4-methoxy-2-methylpyridin-3-yl)methyl)-1-benzyl-1H-pyrazole-4-carboxamide], 320 nM. Under `Cc1nc(N)cc(OC2CCCCC2)c1CNC(=O)c1cnn(Cc2ccccc2)c1` [Example 15, N-((6-amino-4-(cyclohexyloxy)-2-methylpyridin-3-yl)methyl)-1-benzyl-1H-pyrazole-4-carboxamide] stands 230 nM. `Cc1cc(N)nc(C)c1CNC(=O)c1cnn(Cc2ccc(CN3C(=O)CCC3=O)cc2)c1` [Example 17, N-((6-amino-2,4-dimethylpyridin-3-yl)methyl)-1-(4-((2,5-dioxopyrrolidin-1-yl)methyl)benzyl)-1H-pyrazole-4-carboxamide] returned an IC50 of 98 nM. Regarding `Cc1cc(N)nc(C)c1CNC(=O)c1cnn(Cc2ccncc2)c1` [Example 18, N-((6-amino-2,4-dimethylpyridin-3-yl)methyl)-1-(pyridin-4-ylmethyl)-1H-pyrazole-4-carboxamide], the IC50 came to 1100 nM.

`Cc1cc(N)nc(C)c1CNC(=O)c1cn(Cc2ccccc2)nn1` [Example 21, N-((6-amino-2,4-dimethylpyridin-3-yl)methyl)-1-benzyl-1H-1,2,3-triazole-4-carboxamide]: half-maximal inhibition (IC50) required 2540 nM. `Cc1cc(N)nc(C)c1CNC(=O)c1cn(Cc2ccccc2)cn1` [Example 22, N-((6-amino-2,4-dimethylpyridin-3-yl)methyl)-1-benzyl-1H-imidazole-4-carboxamide]: 1700 nM corresponded to half-maximal inhibition (IC50). In turn, `Cc1cc(N)nc(C)c1CNC(=O)c1cn(Cc2ccc(Oc3ccccc3)cc2)cn1` [Example 23, N-((6-amino-2,4-dimethylpyridin-3-yl)methyl)-1-(4-phenoxybenzyl)-1H-imidazole-4-carboxamide] returned an IC50 of 9 nM. In the case of `Cc1cc(N)nc(C)c1CNC(=O)c1cn(Cc2ccc(-n3cccn3)cc2)cn1` [Example 24, 1-(4-(1H-pyrazol-1-yl)benzyl)-N-((6-amino-2,4-dimethylpyridin-3-yl)methyl)-1H-imidazole-4-carboxamide], it took 238 nM to reach half-maximal inhibition (IC50). Against the preceding compound, the IC50 is about 26-fold higher. `Cc1cc(N)nc(C)c1CNC(=O)c1cnn(Cc2csc(Nc3ccccc3)n2)c1` [Example 25, N-((6-amino-2,4-dimethylpyridin-3-yl)methyl)-1-((2-(phenylamino)thiazol-4-yl)methyl)-1H-pyrazole-4-carboxamide] came in with an IC50 of 109 nM. Under `Cc1cc(N)nc(C)c1CNC(=O)c1cnn(Cc2sc(-c3ccccc3)nc2C)c1` [Example 26, N-((6-amino-2,4-dimethylpyridin-3-yl)methyl)-1-((4-methyl-2-phenylthiazol-5-yl)methyl)-1H-pyrazole-4-carboxamide] stands 19 nM; under `Cc1cc(N)nc(C)c1CNC(=O)c1cnn(Cc2csc(Cc3ccccc3)n2)c1` [Example 27, N-((6-amino-2,4-dimethylpyridin-3-yl)methyl)-1-((2-benzylthiazol-4-yl)methyl)-1H-pyrazole-4-carboxamide], 21 nM. The compound `Cc1cc(N)nc(C)c1CNC(=O)c1cnn(Cc2csc(C(C)(C)C)n2)c1` [Example 28, N-((6-amino-2,4-dimethylpyridin-3-yl)methyl)-1-((2-tert-butylthiazol-4-yl)methyl)-1H-pyrazole-4-carboxamide] displayed a 50% inhibitory concentration (IC50) of 343 nM. Under `Cc1cc(N)nc(C)c1CNC(=O)c1cnn(Cc2csc(CC(=O)N(C)C)n2)c1` [Example 29, N-((6-amino-2,4-dimethylpyridin-3-yl)methyl)-1-((2-(2-(dimethylamino)-2-oxoethyl)thiazol-4-yl)methyl]-1H-pyrazole-4-carboxamide] stands 248 nM; under `Cc1cc(N)nc(C)c1CNC(=O)c1cnn(Cc2cn3ccccc3n2)c1` [Example 30, N-((6-amino-2,4-dimethylpyridin-3-yl)methyl)-1-(imidazo[1,2-a]pyridin-2-ylmethyl)-1H-pyrazole-4-carboxamide], 204 nM.

As to `Cc1cc(N)nc(C)c1CNC(=O)c1cnn(Cc2cc3ccccc3o2)c1` [Example 31], 143 nM corresponded to half-maximal inhibition (IC50). The compound `Cc1cc(N)nc(C)c1CNC(=O)c1cnn(Cc2coc(-c3ccccc3)n2)c1` [Example 32, N-((6-amino-2,4-dimethylpyridin-3-yl)methyl)-1-((2-phenyloxazol-4-yl)methyl)-1H-pyrazole-4-carboxamide] returned an IC50 of 41 nM. This IC50 lies about 3.5-fold lower than the previous one. Under `Cc1cc(N)nc(C)c1CNC(=O)c1cnn(Cc2ccc3[nH]cnc3c2)c1` [Example 33, 1-((1H-benzo[d]imidazol-5-yl)methyl)-N-((6-amino-2,4-dimethylpyridin-3-yl)methyl)-1H-pyrazole-4-carboxamide] stands 262 nM; under `Cc1cc(N)nc(C)c1CNC(=O)c1cnn(Cc2ccc3ccn(C)c3c2)c1` [Example 34, N-((6-amino-2,4-dimethylpyridin-3-yl)methyl)-1-((1-methyl-1H-indol-6-yl)methyl)-1H-pyrazole-4-carboxamide], 46 nM; under `Cc1cc(N)nc(C)c1CNC(=O)c1cnn(Cc2ncoc2-c2ccccc2)c1` [Example 35, N-((6-amino-2,4-dimethylpyridin-3-yl)methyl)-1-((5-phenyloxazol-4-yl)methyl)-1H-pyrazole-4-carboxamide], 3900 nM.

The compound `Cc1cc(N)nc(C)c1CNC(=O)c1cnn(S(=O)(=O)c2cccc(C#N)c2)c1` [Example 37, N-((6-amino-2,4-dimethylpyridin-3-yl)methyl)-1-(3-cyanophenylsulfonyl)-1H-pyrazole-4-carboxamide] displayed an IC50 of 5300 nM. Under `Cc1cc(N)nc(C)c1CNC(=O)c1cn(Cc2ccc(Oc3ccccc3)cc2)nn1` [Example 38, N-((6-amino-2,4-dimethylpyridin-3-yl)methyl)-1-(4-phenoxybenzyl)-1H-1,2,3-triazole-4-carboxamide] stands 19 nM. On to `Cc1cc(N)nc(C)c1CNC(=O)c1cn(Cc2cccc3ccccc23)nn1` [Example 39, N-((6-amino-2,4-dimethylpyridin-3-yl)methyl)-1-(naphthalen-1-ylmethyl)-1H-1,2,3-triazole-4-carboxamide], for which the IC50 is 634 nM. For `Cc1cc(N)nc(C)c1CNC(=O)c1cn(Cc2ccc3ccccc3c2)nn1` [Example 40, N-((6-amino-2,4-dimethylpyridin-3-yl)methyl)-1-(naphthalen-2-ylmethyl)-1H-1,2,3-triazole-4-carboxamide], half-maximal inhibition (IC50) was put at 9 nM.

Compound `Cc1cc(N)nc(C)c1CNC(=O)c1cn(Cc2ccc(-n3cccn3)cc2)nn1` [Example 41, 1-(4-(1H-pyrazol-1-yl)benzyl)-N-((6-amino-2,4-dimethylpyridin-3-yl)methyl]-1H-1,2,3-triazole-4-carboxamide] returned an IC50 of 108 nM. Under `Cc1cc(N)nc(C)c1CNC(=O)c1cn(Cc2cccc(-n3cccn3)c2)nn1` [Example 42, 1-(3-(1H-pyrazol-1-yl)benzyl)-N-((6-amino-2,4-dimethylpyridin-3-yl)methyl)-1H-1,2,3-triazole-4-carboxamide] stands 145 nM; under `Cc1cc(N)nc(C)c1CNC(=O)c1cn(Cc2cccc(N3CCCC3)c2)nn1` [Example 43, N-((6-amino-2,4-dimethylpyridin-3-yl)methyl)-1-(3-(pyrolidin-1-yl)benzyl)-1H-1,2,3-triazole-4-carboxamide], 113 nM; under `Cc1cc(N)nc(C)c1CNC(=O)c1cnn(Cc2cc3ccccc3o2)n1` [Example 44, N-((6-amino-2,4-dimethylpyridin-3-yl)methyl)-2-(benzofuran-2-ylmethyl)-2H-1,2,3-triazole-4-carboxamide], 215 nM. In turn, `Cc1cc(N)nc(C)c1CNC(=O)c1cn(Cc2ccc(Cn3ccnc3)cc2)nn1` [Example 45, 1-(4-((1H-imidazol-1-yl)methyl)benzyl)-N-((6-amino-2,4-dimethylpyridin-3-yl)methyl)-1H-1,2,3-triazole-4-carboxamide] showed an IC50 of 45 nM. Take `Cc1cc(N)nc(C)c1CNC(=O)c1cn(Cc2cccc(Cn3ccnc3)c2)nn1` [Example 46, 1-(3-((1H-imidazol-1-yl)methyl)benzyl)-N-((6-amino-2,4-dimethylpyridin-3-yl)methyl)-1H-1,2,3-triazole-4-carboxamide]: the IC50 came out at 1100 nM.
